Laboratory results: patent US20120135923A1, “Use of Melanocortins to Treat Dyslipidemia” (IPSEN PHARMA, S.A.S., priority 2009, published 2012)
Where two headings read alike, the source gives them in different places. Bridge positions count the residues as written; N and C are the ends. Square brackets hold non-standard residues; d marks the D form. Peptide text beside a SMILES is read from it. Pen = CC(C)(S)[C@H](N)C(=O)O; GABA = NCCCC(=O)O

Legend:
hMC5-R [1] = biological target: T1, hMC5-R (Homo sapiens, UniProt P33032); experiment: cyclic AMP bioassay (ECL) in CHO-K1 cells; assay type: cell-based
T1 construct: expressed in transfected cells; host or cells: CHO-K1
T1 sequence (P33032 whole entry): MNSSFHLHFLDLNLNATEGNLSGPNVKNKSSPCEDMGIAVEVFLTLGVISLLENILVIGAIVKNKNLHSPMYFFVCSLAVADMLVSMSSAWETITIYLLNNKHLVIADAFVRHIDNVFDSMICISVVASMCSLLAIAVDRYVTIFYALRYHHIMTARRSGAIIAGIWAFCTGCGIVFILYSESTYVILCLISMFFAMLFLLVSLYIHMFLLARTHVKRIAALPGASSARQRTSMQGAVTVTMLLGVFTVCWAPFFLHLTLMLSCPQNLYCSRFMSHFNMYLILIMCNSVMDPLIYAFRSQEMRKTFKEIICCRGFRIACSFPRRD

hMC1-R [2] = biological target: T2, hMC1-R (Homo sapiens, UniProt Q01726); experiment: cyclic AMP bioassay (ECL) in CHO-K1 cells; assay type: cell-based
T2 construct: expressed in transfected cells; host or cells: CHO-K1
T2 sequence (Q01726 whole entry): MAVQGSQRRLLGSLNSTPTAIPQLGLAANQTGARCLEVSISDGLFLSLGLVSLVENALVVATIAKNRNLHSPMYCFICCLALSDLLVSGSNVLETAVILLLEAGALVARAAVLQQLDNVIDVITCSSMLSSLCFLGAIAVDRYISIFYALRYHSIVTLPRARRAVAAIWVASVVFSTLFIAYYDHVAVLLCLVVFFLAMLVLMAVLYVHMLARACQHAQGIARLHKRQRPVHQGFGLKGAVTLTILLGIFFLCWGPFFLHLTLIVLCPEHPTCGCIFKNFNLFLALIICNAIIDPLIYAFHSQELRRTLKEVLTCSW

hMC3-R [3] = biological target: T3, hMC3-R (Homo sapiens, UniProt P41968); experiment: cyclic AMP bioassay (ECL) in CHO-K1 cells; assay type: cell-based
T3 construct: expressed in transfected cells; host or cells: CHO-K1
T3 sequence (P41968 whole entry): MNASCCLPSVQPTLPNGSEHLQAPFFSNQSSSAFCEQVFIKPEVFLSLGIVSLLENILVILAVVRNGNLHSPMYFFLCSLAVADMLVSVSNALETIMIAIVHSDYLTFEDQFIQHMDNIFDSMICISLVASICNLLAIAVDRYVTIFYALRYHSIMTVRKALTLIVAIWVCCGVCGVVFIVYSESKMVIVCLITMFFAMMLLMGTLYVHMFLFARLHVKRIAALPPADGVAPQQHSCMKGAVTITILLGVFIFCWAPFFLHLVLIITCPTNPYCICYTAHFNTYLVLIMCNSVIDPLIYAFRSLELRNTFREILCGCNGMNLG

hMC3-R [4] = biological target: T3, hMC3-R; experiment: Radioligand binding assay, [125I]-NDP-α-MSH competition, CHO-K1 membranes
Description: (§1) Cellular membranes used for the in vitro receptor binding assays were obtained from transgenic CHO-K1 cells stably expressing hMC-R receptor subtypes 1, 3, 4 or 5. […] The pellets were resuspended in the same buffer and centrifuged at 50,000 g for 10 minutes at approximately 4° C. The washed pellets containing the cellular membranes were stored at approximately −80° C.
(§2) Cell membranes (1-10 μg protein/well) prepared as described above were incubated in 50 mM Tris-HCl at pH 7.4 containing 0.2% bovine serum albumin (BSA), 5 mM MgCl2, 1 mM CaCl2 and 0.1 mg/mL bacitracin, with increasing concentrations of the test compound and 0.1-0.3 nM [^25I]-NDP-α-MSH for approximately 90-120 minutes at approximately 37° C. […] Filters were washed three times with 50 mM Tris-HCl at pH 7.4 at a temperature of approximately 0-4° C. and then assayed for radioactivity using a Packard Topcount® scintillation counter. Binding data were analyzed by computer-assisted non-linear regression analysis (XL fit; IDBS).

hMC4-R = biological target: T4, hMC4-R (Homo sapiens, UniProt P32245); experiment: cyclic AMP bioassay (ECL) in CHO-K1 cells; assay type: cell-based
T4 construct: expressed in transfected cells; host or cells: CHO-K1
T4 sequence (P32245 whole entry): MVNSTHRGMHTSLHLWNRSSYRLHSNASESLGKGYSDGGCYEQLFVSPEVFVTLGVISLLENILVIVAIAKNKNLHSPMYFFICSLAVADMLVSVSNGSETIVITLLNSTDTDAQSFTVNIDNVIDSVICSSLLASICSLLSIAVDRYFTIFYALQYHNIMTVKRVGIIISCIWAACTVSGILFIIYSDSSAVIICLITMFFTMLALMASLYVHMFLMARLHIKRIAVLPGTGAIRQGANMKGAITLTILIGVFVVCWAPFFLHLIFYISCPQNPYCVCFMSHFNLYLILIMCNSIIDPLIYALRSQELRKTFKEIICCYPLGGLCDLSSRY
Description: Intracellular cyclic AMP (cAMP) levels were determined by an electrochemiluminescence (ECL) assay (Meso Scale Discovery®, Gaithersburg, Md.; referred to hereinafter as MSD). […] Transgenic CHO-K1 cells stably expressing hMC receptor subtypes 1, 3, 4 or 5 were dispensed at a density of approximately 7,000 cells/well in 384-well Multi-Array®plates (MSD) containing integrated carbon electrodes and coated with anti-cAMP antibody. Increasing concentrations of the test compounds were added and the cells were incubated for approximately 40 minutes at approximately 37° C. […] At the end of the second incubation period read buffer (Tris-buffered solution containing an ECL co-reactant and Triton X-100 at ph 7.8) was added and the cAMP levels in the cell lysates were immediately determined by ECL detection with a Sector Imager 6000 Reader® (MSD). Data were analyzed using a computer-assisted non-linear regression analysis (XL fit; IDBS) and reported as either an EC50 value or a Kb value.
The Kb value reflects the potency of an antagonist and is determined by Schild analysis. In brief, concentration-response curves of an agonist are carried out in the presence of increasing concentrations of an antagonist. […] It is calculated by extrapolating the line on a Schild plot to zero on the y-axis.

hMC1-R [5] = biological target: T2, hMC1-R; experiment: Radioligand binding assay, [125I]-NDP-α-MSH competition, CHO-K1 membranes; conditions: Table 5
Description: as §1, §2

hMC5-R [6] = biological target: T1, hMC5-R; experiment: as above; conditions: Ki hMC5-R, Table 5
Description: as §1, §2

[7] = Table 9A/9B, read-out: EC50 hMC5-R
[8] = Table 9A/9B, read-out: EC50 hMC1-R
[9] = Table 9A/9B, read-out: EC50 hMC3-R
[10] = Table 9A/9B, read-out: EC50 hMC4-R

EC50 (hMC5-R [1]; [7]) | EC50 (hMC1-R [2]; [8]) | EC50 (hMC3-R [3]; [9]) | Ki (hMC1-R [5]; read-out: Ki hMC1-R) | EC50 (hMC4-R; [10]) | SMILES | EC50 (hMC5-R [1]) | EC50 (hMC1-R [2]) | also measured
 |  |  |  |  | CC(=O)N[C@H]1CSSC[C@@H](C(=O)N2CCC[C@H]2C(=O)N2CCC[C@H]2C(=O)N[C@@H](CCCCN)C(=O)N[C@@H](CC(=O)O)C(=O)NCCC(=O)N[C@@H](Cc2ccc(O)cc2)C(=O)NCC(=O)N[C@@H](CCCNC(=N)N)C(=O)N[C@@H](CCCCN)C(=O)N[C@@H](CCCNC(=N)N)C(=O)N[C@@H](CCCNC(=N)N)C(=O)N[C@@H](CCCNC(=N)N)C(=O)N[C@@H](CCC(N)=O)C(=O)N[C@@H](CCCNC(=N)N)C(=O)N[C@@H](CCCNC(=N)N)C(=O)N[C@@H](CCCNC(=N)N)C(N)=O)NC(=O)[C@H](C)NC(=O)[C@H](Cc2csc3ccccc23)NC(=O)[C@H](CCCNC(=N)N)NC(=O)[C@@H](Cc2ccc3ccccc3c2)NC(=O)[C@H](Cc2c[nH]cn2)NC(=O)[C@H](CCC(=O)O)NC1=O | 95.7 nM | 11.2 nM | Kb (hMC3-R [3]): 52.1 nM; Ki (hMC3-R [4]; Ki hMC3-R, Table 6): 1.12 nM; Kb (hMC4-R): 9.45 nM
 |  |  |  |  | CC(=O)N[C@H]1CSSC[C@@H](C(=O)N2CCC[C@H]2C(=O)N2CCC[C@H]2C(=O)N[C@@H](CCCCN)C(=O)N[C@@H](CC(=O)O)C(=O)NCCC(=O)N[C@@H](CCCNC(=N)N)C(=O)N[C@@H](CCCNC(=N)N)C(=O)N[C@@H](CCCNC(=N)N)C(=O)N[C@@H](CCCNC(=N)N)C(=O)N[C@@H](CCCNC(=N)N)C(=O)N[C@@H](CCCNC(=N)N)C(=O)N[C@@H](CCC(N)=O)C(=O)N[C@@H](CCCNC(=N)N)C(=O)N[C@@H](CCCNC(=N)N)C(=O)N[C@@H](CCCNC(=N)N)C(N)=O)NC(=O)[C@H](C)NC(=O)[C@H](Cc2csc3ccccc23)NC(=O)[C@H](CCCNC(=N)N)NC(=O)[C@@H](Cc2ccc3ccccc3c2)NC(=O)[C@H](Cc2c[nH]cn2)NC(=O)[C@H](CCC(=O)O)NC1=O | > 10000 nM | 68.6 nM | Kb (hMC3-R [3]): 153 nM; Ki (hMC3-R [4]; Ki hMC3-R, Table 6): 14.3 nM; Kb (hMC4-R): 33.2 nM
23.2 nM | 4.23 nM | 8.09 nM | 1.81 nM | 0.719 nM | CC(=O)N[C@@H](CCCNC(=N)N)C(=O)N[C@H]1CSSC(C)(C)[C@@H](C(N)=O)NC(=O)CCCNC(=O)[C@H](Cc2c[nH]c3ccccc23)NC(=O)[C@H](CCCNC(=N)N)NC(=O)[C@@H](Cc2ccccc2)NC(=O)[C@H](Cc2c[nH]cn2)NC1=O [Ac-Arg-c(Cys-His-D-Phe-Arg-Trp-Gaba-Pen)-NH2] (Ac-RCH[dF]RW[GABA][Pen]-NH2; disulfide 2-8 (inferred)) |  |  | 
297 nM | 1.48 nM | 5.76 nM | 0.79 nM | 0.078 nM | CC(=O)N[C@H](CCCNC(=N)N)C(=O)N[C@H]1CC(=O)NCCCC[C@@H](C(N)=O)NC(=O)[C@H](C)NC(=O)[C@H](Cc2c[nH]c3ccccc23)NC(=O)[C@H](CCCNC(=N)N)NC(=O)[C@@H](Cc2ccccc2)NC(=O)[C@H](Cc2c[nH]cn2)NC1=O [Ac-D-Arg-c(Asp-His-D-Phe-Arg-Trp-Ala-Lys)-NH2] |  |  | 
 |  |  |  |  | CC(=O)N[C@H](CCCNC(=N)N)C(=O)N[C@H]1CSSC(C)(C)[C@@H](C(N)=O)NC(=O)[C@H](Cc2c[nH]c3ccccc23)NC(=O)[C@H](CCCNC(=N)N)NC(=O)[C@@H](Cc2ccccc2)NC(=O)[C@H](Cc2c[nH]cn2)NC(=O)[C@@H](C)NC1=O [Ac-D-Arg-c(Cys-D-Ala-His-D-Phe-Arg-Trp-Pen)-NH2] | 2440 nM | 26.5 nM | EC50 (hMC3-R [3]): 10.5 nM; Ki (hMC3-R [4]; Ki hMC3-R, Table 5): 13.3 nM; Ki (hMC1-R [5]; Ki hMC1-R): 8.29 nM; Ki (hMC5-R [6]): 816 nM; EC50 (hMC4-R): 0.493 nM
2140 nM | 8.43 nM | 32.4 nM | 3.93 nM | 0.959 nM | CC(=O)N[C@H](CCCNC(=N)N)C(=O)N[C@H]1CSSC(C)(C)[C@@H](C(N)=O)NC(=O)CCCNC(=O)[C@H](Cc2c[nH]c3ccccc23)NC(=O)[C@H](CCCNC(=N)N)NC(=O)[C@@H](Cc2ccccc2)NC(=O)[C@H](Cc2c[nH]cn2)NC1=O [Ac-D-Arg-c(Cys-His-D-Phe-Arg-Trp-Gaba-Pen)-NH2] (Ac-[dR]CH[dF]RW[GABA][Pen]-NH2; disulfide 2-8 (inferred)) |  |  | 
 |  |  |  |  | CC(=O)N[C@@H](CC(C)C)C(=O)N[C@H]1CSSC[C@@H](C(N)=O)NC(=O)CCCNC(=O)[C@H](Cc2c[nH]c3ccccc23)NC(=O)[C@H](CCCNC(=N)N)NC(=O)[C@@H](Cc2ccccc2)NC(=O)[C@H](Cc2c[nH]cn2)NC1=O [Ac-Leu-c(Cys-His-D-Phe-Arg-Trp-Gaba-Cys)-NH2] (Ac-LCH[dF]RW[GABA]C-NH2; disulfide 2-8 (inferred)) |  |  | Ki (hMC3-R [4]; Table 5, read-out: Ki hMC3-R): 17.4 nM
 |  |  | 0.648 nM |  | CCCC[C@H](NC(C)=O)C(=O)N[C@H]1CC(=O)NCCCC[C@@H](C(N)=O)NC(=O)CCNC(=O)[C@H](Cc2c[nH]c3ccccc23)NC(=O)[C@H](CCCNC(=N)N)NC(=O)[C@@H](Cc2ccc3ccccc3c2)NC(=O)[C@H](Cc2c[nH]cn2)NC1=O [Ac-Nle-c(Asp-His-D-2-Nal-Arg-Trp-β-Ala-Lys)-NH2] |  |  | EC50 (hMC1-R [2]; Table 9C/9D, read-out: EC50 hMC1-R): 0.913 nM
